Measured values as given in PubChem BioAssay (NCI).
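Where inhibition never reached the appropriate level, the endpoint shown equals the highest concentration tested. Otherwise, values were interpolated linearly from a five-concentration, 48-hour dose response in 96-well plates. The concentration for 50% growth inhibition is given as GI50. The concentration for full growth arrest is given as TGI.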

What was measured:
Experiment in all cases: growth of human tumour cells (NCI), 48 h
[1] = system: IGROV1 ovarian
[2] = system: SK-MEL-28 melanoma
[3] = system: NCI-H460 lung
[4] = system: MDA-MB-231 breast
[5] = system: MALME-3M melanoma
[6] = system: HT29 colon
[7] = system: RPMI-8226 leukemia
[8] = system: SF-268 CNS
[9] = system: HCT-116 colon
[10] = system: UO-31 renal
[11] = system: MOLT-4 leukemia
[12] = system: BT-549 breast
[13] = system: HCC-2998 colon
[14] = system: SN12C renal
[15] = system: MDA-MB-435
[16] = system: 786-0 renal
[17] = system: SK-MEL-5 melanoma
[18] = system: M14 melanoma
[19] = system: HS 578T breast
[20] = system: U251 CNS
[21] = system: NCI/ADR-RES ovarian
[22] = system: UACC-62 melanoma
[23] = system: OVCAR-5 ovarian
[24] = system: UACC-257 melanoma
[25] = system: NCI-H226 lung
[26] = system: CCRF-CEM leukemia
[27] = system: HOP-62 NSCLC
[28] = system: SR leukemia
[29] = system: SNB-19 CNS
[30] = system: SK-MEL-2 melanoma
[31] = system: PC-3 prostate
[32] = system: SK-OV-3 ovarian
[33] = system: SW-620 colon
[34] = system: HOP-92 NSCLC
[35] = system: KM12 colon
[36] = system: SF-295 CNS
[37] = system: DU-145 prostate
[38] = system: SNB-75 CNS
[39] = system: LOX IMVI melanoma
[40] = system: A498 renal
[41] = system: A549 NSCLC
[42] = system: NCI-H522 lung
[43] = system: HCT-15 colon
[44] = system: OVCAR-3 ovarian
[45] = system: NCI-H23 lung
[46] = system: ACHN renal
[47] = system: SF-539 CNS
[48] = system: OVCAR-8 ovarian
[49] = system: COLO 205 colon
[50] = system: HL-60(TB) leukemia
[51] = system: K-562 leukemia
[52] = system: T-47D breast
[53] = system: OVCAR-4 ovarian
[54] = system: CAKI-1 renal
[55] = system: RXF 393 renal
[56] = system: MCF7 breast

Q: For `O=C1Nc2ccccc2/C1=C/C(=N/c1nnc(-c2ccc(Cl)cc2)s1)c1ccccc1`, which GI50 [1] is on record?
A: 2.1 µM

Q: What about the TGI [1] of the same compound?
A: 5.59 µM

Q: What about the GI50 [2] of the same compound?
A: 2.36 µM

Q: What about the TGI [2] of the same compound?
A: 5.59 µM

Q: And the GI50 [3]?
A: 5.95 µM

Q: And the TGI [3]?
A: 21.9 µM

Q: And the GI50 [4]?
A: 2.14 µM

Q: What about the TGI [4] of the same compound?
A: 6.21 µM

Q: What about the GI50 [5] of the same compound?
A: 2.07 µM

Q: What about the TGI [5] of the same compound?
A: 6.18 µM

Q: What about the GI50 [6] of the same compound?
A: 1.94 µM

Q: And the TGI [6]?
A: 5.61 µM

Q: What about the GI50 [7] of the same compound?
A: 2.07 µM

Q: What about the TGI [7] of the same compound?
A: 5.4 µM

Q: And the GI50 [8]?
A: 4.25 µM

Q: And the TGI [8]?
A: 16.3 µM

Q: What about the GI50 [9] of the same compound?
A: 1.06 µM

Q: And the TGI [9]?
A: 2.38 µM

Q: What about the GI50 [10] of the same compound?
A: 1.4 µM

Q: And the TGI [10]?
A: 3.48 µM

Q: What about the GI50 [11] of the same compound?
A: 2.27 µM

Q: And the TGI [11]?
A: 6.01 µM

Q: And the GI50 [12]?
A: 1.79 µM

Q: What about the TGI [12] of the same compound?
A: 3.66 µM

Q: What about the GI50 [13] of the same compound?
A: 8.11 µM

Q: And the TGI [13]?
A: 20.9 µM

Q: And the GI50 [14]?
A: 2.16 µM

Q: And the TGI [14]?
A: 5.97 µM

Q: And the GI50 [15]?
A: 2.55 µM

Q: What about the TGI [15] of the same compound?
A: 7.23 µM

Q: And the GI50 [16]?
A: 1.72 µM

Q: And the TGI [16]?
A: 3.4 µM

Q: And the GI50 [17]?
A: 12.6 µM

Q: What about the TGI [17] of the same compound?
A: 26.9 µM

Q: And the GI50 [18]?
A: 2.37 µM

Q: And the TGI [18]?
A: 6.28 µM

Q: What about the GI50 [19] of the same compound?
A: 3.25 µM

Q: What about the TGI [19] of the same compound?
A: 16 µM

Q: And the GI50 [20]?
A: 4.04 µM

Q: And the TGI [20]?
A: 15.5 µM

Q: What about the GI50 [21] of the same compound?
A: 3.31 µM

Q: What about the TGI [21] of the same compound?
A: 12.2 µM

Q: And the GI50 [22]?
A: 1.93 µM

Q: And the TGI [22]?
A: 4.58 µM

Q: And the GI50 [23]?
A: 1.81 µM

Q: And the TGI [23]?
A: 4.86 µM

Q: And the GI50 [24]?
A: 2.82 µM

Q: What about the TGI [24] of the same compound?
A: 8.64 µM

Q: What about the GI50 [25] of the same compound?
A: 3.19 µM

Q: What about the TGI [25] of the same compound?
A: 13.4 µM

Q: What about the GI50 [26] of the same compound?
A: 1.16 µM

Q: And the TGI [26]?
A: 4.28 µM

Q: What about the GI50 [27] of the same compound?
A: 7.16 µM

Q: And the TGI [27]?
A: 21.5 µM

Q: And the GI50 [28]?
A: 0.964 µM

Q: And the TGI [28]?
A: 6.05 µM

Q: What about the GI50 [29] of the same compound?
A: 12.6 µM

Q: What about the TGI [29] of the same compound?
A: 25.4 µM

Q: What about the GI50 [30] of the same compound?
A: 3.21 µM

Q: What about the TGI [30] of the same compound?
A: 9.32 µM

Q: And the GI50 [31]?
A: 1.93 µM

Q: What about the TGI [31] of the same compound?
A: 5.88 µM

Q: And the GI50 [32]?
A: 5.86 µM

Q: What about the TGI [32] of the same compound?
A: 17.4 µM

Q: And the GI50 [33]?
A: 1.21 µM

Q: And the TGI [33]?
A: 2.82 µM

Q: What about the GI50 [34] of the same compound?
A: 0.969 µM

Q: And the TGI [34]?
A: 3.03 µM

Q: And the GI50 [35]?
A: 4.85 µM

Q: What about the TGI [35] of the same compound?
A: 15.6 µM

Q: And the GI50 [36]?
A: 11.6 µM

Q: And the TGI [36]?
A: 25.6 µM

Q: What about the GI50 [37] of the same compound?
A: 2.52 µM

Q: What about the TGI [37] of the same compound?
A: 6.9 µM

Q: And the GI50 [38]?
A: 2.53 µM

Q: What about the TGI [38] of the same compound?
A: 13.7 µM

Q: And the GI50 [39]?
A: 1.54 µM

Q: And the TGI [39]?
A: 3.13 µM

Q: What about the GI50 [40] of the same compound?
A: 9.03 µM

Q: And the TGI [40]?
A: 26.1 µM

Q: And the GI50 [41]?
A: 7.78 µM

Q: And the TGI [41]?
A: 23.8 µM

Q: And the GI50 [42]?
A: 0.518 µM

Q: What about the TGI [42] of the same compound?
A: 1.21 µM

Q: What about the GI50 [43] of the same compound?
A: 1.4 µM

Q: And the TGI [43]?
A: 3.28 µM

Q: What about the GI50 [44] of the same compound?
A: 1.26 µM

Q: And the TGI [44]?
A: 2.66 µM

Q: And the GI50 [45]?
A: 2.96 µM

Q: And the TGI [45]?
A: 11.2 µM

Q: And the GI50 [46]?
A: 1.41 µM

Q: And the TGI [46]?
A: 2.83 µM

Q: And the GI50 [47]?
A: 1.81 µM

Q: And the TGI [47]?
A: 4.08 µM

Q: And the GI50 [48]?
A: 2.81 µM

Q: And the TGI [48]?
A: 10.1 µM

Q: What about the GI50 [49] of the same compound?
A: 1.77 µM

Q: And the TGI [49]?
A: 3.4 µM

Q: What about the GI50 [50] of the same compound?
A: 1.78 µM

Q: What about the TGI [50] of the same compound?
A: 5.54 µM

Q: What about the GI50 [51] of the same compound?
A: 1.75 µM

Q: What about the TGI [51] of the same compound?
A: 11.4 µM

Q: And the GI50 [52]?
A: 2.31 µM

Q: What about the TGI [52] of the same compound?
A: 10.2 µM

Q: And the GI50 [53]?
A: 2.56 µM

Q: And the TGI [53]?
A: 12.2 µM

Q: And the GI50 [54]?
A: 1.43 µM

Q: What about the TGI [54] of the same compound?
A: 4.92 µM

Q: What about the GI50 [55] of the same compound?
A: 1.5 µM

Q: What about the TGI [55] of the same compound?
A: 3.07 µM

Q: What about the GI50 [56] of the same compound?
A: 2.36 µM

Q: What about the TGI [56] of the same compound?
A: 10.8 µM
